Two molecules from patent US7396682B2, “Method for cell adhesion and wound healing” (Regen Biotech, Inc., priority 2000, dated 2008) can be followed below.

One assay concerns HCE cells. Nature of the assay: Inhibition assay of HCE cell adhesion using matrix peptides and reagents. It is filed as cell-based, human. Particulars: HCE cells preincubated 30 min with reagent; for inhibition of cell adhesion to fibronectin: dishes coated with 10 μg/ml fibronectin; for inhibition of cell adhesion to βig-h3: dishes coated with 10 μg/ml βig-h3. The method, then:
In order to identify cell surface receptors involved in the cell adhesion activity of βig-h3 protein, an inhibition assay was performed using various reagents.
Initially, plastic culture dishes were coated with 10 μg/ml fibronectin, βigh3-WT or βigh3-ΔRGD. HCE cells were preincubated for 30 min in media containing 5 mM EDTA, 100 μg/ml βigh3-WT, 100 μg/ml βigh3-ΔRGD, 1 mM RGD, 1 mM RGE or 100 μg/ml fibronectin, or none of them, and then assayed for cell adhesion as in Example 1.

A further assay relates to K562 cells. Nature of the assay: K562 cell adhesion to coated proteins (hexosaminidase analysis). It is filed as cell-based. The settings on record: 1 hour. On the procedure: For another control experiment, K562 cells, known to express α5, but not α3 integrin, were used. K562 cells were inoculated onto plates coated with βigh3-WT, fibronectin, laminin, or type I collagen and incubated for 1 hour, followed by the hexosaminidase analysis.

In assay [1] the test system is dermal whole layer wounds on the backs of rats. In words: Wound healing with ointment bases on dermal whole layer wounds (2 cm) of rats. It is filed as in vivo, rat. Details: key to Formation grade of collagenous fibers at wound: 0: negative; 1+: insignificant; 2+: scatteringly formed; 3+: very dense; key to Re-ephithelialization of Wound (grade): 0: zero was set for the formation of no epithelial layers; 1+ for initiation of epithelialization; 2+ for incomplete epithelial layer structure; 3+ for complete epithelial layer structure. The settings on record: for wound area: ointment 100 μg/ml, 1 g per day, mean. The method, then:
To compare wound healing activity between the recombinant βig-h3 protein His-β-b, which contains all of the four fas-1 domains, like native βig-h3 protein, and the recombinant βig-h3 protein βigh3-D-IV, which contains the 4th domain alone, ointment bases comprising the recombinant proteins were tested as follows.
Four dermal whole layer wounds, each 2 cm in diameter, were made on the backs of rats and divided into test groups 1-A, 1-B, 1-C and 1-D according to the ointment applied thereto.
1-A: coated at a dose of 1 gm per day with an ointment base combined with no materials.
1-B: coated at a dose of 1 gm per day with an ointment in which fibronectin was combined at a concentration of 100 μg/ml with a base.
1-C: coated at a dose of 1 g per day with an ointment in which Hisβ-b protein was combined at a concentration of 100 μg/ml with a base.
1-D: coated at a dose of 1 g per day with an ointment in which βigh3-D-IV protein was combined at a concentration of 100 μg/ml with a base.
The backs of etherized rats were shaved, followed by sterilizing the shaved region with betadin solution. In test group 1, the back of each rat was cut by use of a No. 15 surgical blade to form four circular wounds with a diameter of 2 cm penetrating the whole dermal layers. Ointments for test groups 1-A, 1-B, 1-C and 1-D were applied at an amount of about 1 g to the wounds which were then covered with a synthetic dressing (Tegaderm® 3M) and lightly bandaged. Application of ointments was performed once every day.
With a base of an aqueous material (SamA base), each of the ointments contained, per 1 g, spermaceti 38 mg, stearyl alcohol 116 mg, polyethylglycol 38 mg, conc. glycerin 192 mg, ethanol 23 mg, […], ethyl paraoxybenzoate 0.87 mg, butyl paraoxybenzoate 0.12 mg, and purified water.
First, morphologies of wounds were observed. The same scale was positioned near each wound and pictures were taken at the same distance from each wound. Pictures were scanned in a computer and used to measure areas of the wounds with the aid of NIH image analysis system (Bio-Optics). To take the pictures, the muscle was completely relaxed by etherizing the rats. Measurements were performed once every other day until the 22nd day. For comparing test groups, the measured values were analyzed according to ANOVA test and Scheffer's test.
Histological analysis was conducted under an optical microscope. Biopsies of wound sites were taken at days 3, 7, 10, 14 and 20, and fixed in 10% formalin and solidified with paraffin. 6 μm slices of the samples were dyed with hematoxylin-eosin (H&E) and Masson's trichrome before observation under a microscope. Wound healing effects according to time of each test material were evaluated through re-epithelialization and formation of collagenous fibers. In the case of re-epithelialization, epithelial formation was semi-quantified in such a way that zero was set for the formation of no epithelial layers, 1+ for initiation of epithelialization, 2+ for incomplete epithelial layer structure, and 3+ for complete epithelial layer structure. Regarding comparison among test groups and differences according to time within each group, measured values were statistically analyzed using ANOVA test and Scheffe's test. As for collagenous fiber formation, it was graded as 1+ for insignificant formation of collagenous fibers as observed with trichrome dye, 2+ for scatteringly spaced collagenous fibers, and 3+ for dense collagenous fibers.

Assay [2] relates to circular dermal whole layer wounds on the back of each rat. Nature of the assay: Wound healing with chitosan base composites on dermal whole layer wounds (7 mm) of rats. Particulars: chitosan base with 500 μg/ml protein, Mean ± S.D. It is filed as in vivo. On the procedure:
Adult Spraque-Dawley lineage rats with a body weight of 250-300 gm were raised with standard feedstuff at a constant temperature and humidity.
In test group 2, four circular dermal whole layer wounds were made on the back of each rat and coated with chitosan bases combined with materials of interest:
2-A: wound coated with chitosan base only
2-B: wound coated with chitosan base in combination with 500 μg/ml of fibronectin
2-E: wound coated with chitosan base in combination with 500 μg/ml of βig-h3 D-IV 3X protein
2-F: wound coated with chitosan base in combination with 500 μg/ml of βig-h3 D-IV 4X protein
The composites based on chitosan were prepared as follows. 1 g of water soluble chitosan (poly(1-4) 2-amino-2-deoxy-β-D-glucan) with a molecular weight of 600,000 Da was dissolved in 100 ml of sterile distilled water and the resulting 1% solution was dispensed in aliquot of 2 ml to 12-well plate (Corning, USA), followed by the addition of 100 μg of gentamycin per well. Fibronectin, βigh3-D-IV 3X, and βigh3-D-IV 4X were individually added to a concentration of 500 μg/ml and frozen at −70° C., followed by freeze-drying in a freeze drier (Ilshin) for 12 hours to give disc-shaped composites.
The backs of etherized rats were shaved, followed by sterilizing the shaved region with betadin solution. Penetrating the whole dermal layers, four circular wounds with a diameter of 7 mm were formed on the back of each rat. The wounds were covered with composites used for test groups 2-A, 2-B, 2-E and 2-F, respectively, and then with Tegaderm® (3M) and lightly bandaged. The composites were changed with fresh ones every three days.
Wound healing effects were evaluated by determining appearances of the wounds as in Example 4-2.

Assay [3] has as its system Human corneal epithelial (HCE) cells. Nature of the assay: HCE cell adhesion and spreading assay on protein-coated plates. It is filed as cell-based. The settings on record: HCE cells on coated protein, 1 hour at 37° C. On the procedure: Human corneal epithelial (HCE) cells used in this assay were cultured in DMEM ([…], Gibco BRL) supplemented with 15% fetal bovine serum, Gentamicin (40 μg/ml), insulin (5 μg/ml), cholera toxin (0.1 μg/ml) and human epidermal growth factor (hEGF) at 37° C. in 5% CO2.
The cell adhesion assay was performed as follows. First, the recombinant βig-h3 proteins or other extracellular matrix proteins were let to adhere to the bottoms of 96-well microculture plates (Falcon) by incubation at 37° C. for 1 hour and blocked with PBS containing 0.2% BSA. The coated extracellular matrix proteins were human plasma vitronectin (Promega), purified human plasma fibronectin (pFN), chicken collagen types I and II (Chemicon International Inc.), bovine collagen types IV and VI (Chemicon), mouse laminin (Chemicon), and bovine serum albumin (BSA) (Sigma). Cells were trypsinized and suspended in the culture media at a density of 2×10^5 cells/ml. 0.1 ml of the cell suspension was added to each well of the plates coated with the recombinant proteins.
Following incubation at 37° C. for 1 hour, unattached cells were removed by rinsing with PBS. Attached cells were incubated for 1 hour at 37° C. in 50 mM citrate buffer, pH 5.0, containing 3.75 mM p-nitrophenol-N-acetyl 1-β-D-glycosaminide as a hexosaminidase substrate and 0.25% Triton X-100, followed by the addition of 50 mM glycine buffer, pH 10.4, containing 5 mM EDTA to block the enzyme activity. A measurement was made of absorbance at 405 nm in a Multiskan MCC/340 microplate reader.
To determine cell area as an index for cell adhesion activity, 4×10^4 cells were applied to substrates in 48-well culture plates. The attached cells were fixed weith 8% glutaraldehyde (Sigma) and then stained with 0.25% Crystal Violet (Sigma) in 20% methanol. Measurement of cell areas was performed by Image-Pro plus software (Media Cybernetics). Experiments were repeated in triplicate with 200 or 300 measurements per site for each experiment. Data is reported as the mean area at specific time points±standard error of mean.

For the molecule “Fibronectin: positive control; purified human plasma fibronectin in cell assays, purified from citrated rat plasma for wound tests”, the “inhibition of cell adhesion to fibronectin” value in the assay with HCE cells is “significantly inhibited”. In addition, in the assay on HCE cells, the “inhibition of cell adhesion to βig-h3” value was “partially inhibited”. In addition, the “adhesion of K562 cells to coated protein” value with K562 cells is recorded as “adhered”. In addition, the wound area in assay [1] (Day 0) came out at 3.17; in assay [1] (Day 2), 2.38 cm²; in assay [1] (Day 4), 2.01; in assay [1] (Day 6), 1.83; in assay [1] (Day 8), 1.39 cm²; in assay [1] (Day 10) it was 1.26 cm². In addition, the wound area was determined as 0.54 in assay [1] (Day 12); 0.39 in assay [1] (Day 14); 0.25 in assay [1] (Day 16); 0.16 in assay [1] (Day 18); 0.12 in assay [1] (Day 20); 0.06 in assay [1] (Day 22). The “Formation grade of collagenous fibers at wound” value in assay [1] (Day 3) is on record as 1+; in assay [1] (Day 7), 2+; in assay [1] (Day 10) it was 2+; in assay [1] (Day 14), 3+; in assay [1] (Day 20) it was 3+. Moreover, the “Re-ephithelialization of Wound (grade)” value in assay [1] (Day 3) is listed as 0; in assay [1] (Day 7) it was 1+; in assay [1] (Day 10), 1+; in assay [1] (Day 14), 2+; in assay [1] (Day 20) it was 3+. The “reduction in wound area compared with ointment base alone” value in assay [1] (ointment application, p<0.05 versus group I-A) is “more quickly reduced”. The molecule also displayed a completion of re-epithelialization in assay [1] (optical microscope) of 20 days. The Remaining wound area is on record as 49.2 ± 0.5 mm^2 in assay [2] (Day 0); 24.1 ± 0.6^b mm^2 in assay [2] (Day 3); 12.9 ± 0.6^b mm^2 in assay [2] (Day 6); 9.7 ± 0.8^b mm^2 in assay [2] (Day 9); 3.2 ± 0.4^b mm^2 in assay [2] (Day 12); 0.8 ± 0.2^b mm^2 in assay [2] (Day 15).

B1: βigh3-WT: wild-type human recombinant βig-h3 protein (SEQ ID NO: 22) (protein, UniProt Q15582 24-683, looked up)
Transforming growth …: GPAKSPYQLVLQHSRLRGRQHGPNVCAVQKVIGTNRKYFTNCKQWYQRKICGKSTVISYECCPGYEKVPGEKGCPAALPLSNLYETLGVVGSTTTQLYTDRTEKLRPEMEGPGSFTIFAPSNEAWASLPAEVLDSLVSNVNIELLNALRYHMVGRRVLTDELKHGMTLTSMYQNSNIQIHHYPNGIVTVNCARLLKADHHATNGVVHLIDKVISTITNNIQQIIEIEDTFETLRAAVAASGLNTMLEGNGQYTLLAPTNEAFEKIPSETLNRILGDPEALRDLLNNHILKSAMCAEAIVAGLSVETLEGTTLEVGCSGDMLTINGKAIISNKDILATNGVIHYIDELLIPDSAKTLFELAAESDVSTAIDLFRQAGLGNHLSGSERLTLLAPLNSVFKDGTPPIDAHTRNLLRNHIIKDQLASKYLYHGQTLETLGGKKLRVFVYRNSLCIENSCIAAHDKRGRYGTLFTMDRVLTPPMGTVMDVLKGDNRFSMLVAAIQSAGLTETLNREGVYTVFAPTNEAFRALPPRERSRLLGDAKELANILKYHIGDEILVSGGIGALVRLKSLQGDKLEVSLKNNVVSVNKEPVAEPDIMATNGVVHVITNVLQPPANRPQERGDELADSALEIFKQASAFSRASQRSVRLAPVYQKLLERMKH
With B1, the “cell adhesion and spreading activity (numbers and surface areas of attached HCE cells)” value in assay [3] is listed as “clearly greater than those attached to albumin”. Besides, in the assay on HCE cells, the “inhibition of cell adhesion to fibronectin” value is reported as “partially inhibited” and the “inhibition of cell adhesion to βig-h3” value is listed as “significantly inhibited”. Besides, the “adhesion of K562 cells to coated protein” value in the assay on K562 cells is recorded as “did not adhere”.
